Data from ChEMBL document CHEMBL1137827, “Spiroquinazolinones as novel, potent, and selective PDE7 inhibitors. Part 1” (Bioorg Med Chem Lett, 2004).

Assays:
[1] = molecular target: T1, cGMP-inhibited 3',5'-cyclic phosphodiesterase 3A (Homo sapiens, UniProt Q14432); experiment: In vitro inhibition of human Phosphodiesterase 3A3 expressed in baculovirus infected Sf9 cells
Phosphodiesterase 1 [2] = molecular target: T2, Phosphodiesterase 1 (Homo sapiens, UniProt P54750+Q01064+Q14123); experiment: In vitro inhibition of human Phosphodiesterase 1 partially purified from THP-1 cells
[3] = molecular target: T3, High affinity 3',5'-cyclic-AMP phosphodiesterase 7A (Homo sapiens, UniProt Q13946); experiment: In vitro inhibition of human Phosphodiesterase 7A1 expressed in baculovirus infected Sf9 cells
T3 sequence (Q13946 whole entry): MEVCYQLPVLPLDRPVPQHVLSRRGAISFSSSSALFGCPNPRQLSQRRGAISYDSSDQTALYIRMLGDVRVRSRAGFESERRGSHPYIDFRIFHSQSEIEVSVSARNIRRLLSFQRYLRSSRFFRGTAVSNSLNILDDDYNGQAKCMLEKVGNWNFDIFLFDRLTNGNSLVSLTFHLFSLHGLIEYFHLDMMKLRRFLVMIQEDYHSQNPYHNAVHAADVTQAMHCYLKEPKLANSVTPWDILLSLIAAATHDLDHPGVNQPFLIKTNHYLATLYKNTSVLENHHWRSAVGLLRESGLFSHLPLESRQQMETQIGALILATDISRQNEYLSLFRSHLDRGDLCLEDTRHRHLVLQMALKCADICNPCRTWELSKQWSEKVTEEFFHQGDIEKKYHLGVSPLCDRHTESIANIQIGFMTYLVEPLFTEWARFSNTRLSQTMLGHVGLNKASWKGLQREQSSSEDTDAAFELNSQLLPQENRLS

[4] = molecular target: T4, cGMP-specific 3',5'-cyclic phosphodiesterase (Homo sapiens, UniProt O76074); experiment: In vitro inhibition of human Phosphodiesterase 5
[5] = molecular target: T5, 3',5'-cyclic-AMP phosphodiesterase 4D (Homo sapiens, UniProt Q08499); experiment: In vitro inhibition of human Phosphodiesterase 4D3 expressed in baculovirus infected Sf9 cells
T5 sequence (Q08499 whole entry): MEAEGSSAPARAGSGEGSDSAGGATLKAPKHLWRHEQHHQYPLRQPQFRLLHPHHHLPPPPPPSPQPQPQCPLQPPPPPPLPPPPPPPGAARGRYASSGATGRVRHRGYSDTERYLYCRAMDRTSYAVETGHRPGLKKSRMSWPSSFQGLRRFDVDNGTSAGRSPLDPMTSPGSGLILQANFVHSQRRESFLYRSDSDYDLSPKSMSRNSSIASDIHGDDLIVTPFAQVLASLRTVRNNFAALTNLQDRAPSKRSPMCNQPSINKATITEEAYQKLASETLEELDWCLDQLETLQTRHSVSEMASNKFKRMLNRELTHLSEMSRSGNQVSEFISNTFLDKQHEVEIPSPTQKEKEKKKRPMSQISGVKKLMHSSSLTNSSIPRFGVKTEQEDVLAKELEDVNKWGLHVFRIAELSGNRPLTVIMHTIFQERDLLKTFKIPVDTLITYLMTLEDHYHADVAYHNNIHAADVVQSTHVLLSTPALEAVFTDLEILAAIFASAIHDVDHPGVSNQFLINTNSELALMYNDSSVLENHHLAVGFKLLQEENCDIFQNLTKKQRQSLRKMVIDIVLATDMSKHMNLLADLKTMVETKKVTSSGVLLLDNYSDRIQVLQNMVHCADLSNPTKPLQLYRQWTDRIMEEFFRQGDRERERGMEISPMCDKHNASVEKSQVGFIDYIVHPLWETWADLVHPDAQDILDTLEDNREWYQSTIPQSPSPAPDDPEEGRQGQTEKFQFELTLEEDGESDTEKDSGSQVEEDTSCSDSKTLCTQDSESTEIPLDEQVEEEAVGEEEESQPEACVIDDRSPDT

[6] = molecular target: T5, 3',5'-cyclic-AMP phosphodiesterase 4D; experiment: Inhibition of human Phosphodiesterase 4D3 expressed in baculovirus infected Sf9 cells
Phosphodiesterase 1 [7] = molecular target: T2, Phosphodiesterase 1; experiment: Inhibition of human Phosphodiesterase 1 partially purified from THP-1 cells; type: cell-free
[8] = molecular target: T1, cGMP-inhibited 3',5'-cyclic phosphodiesterase 3A; experiment: Inhibition of human Phosphodiesterase 3A3 expressed in baculovirus infected Sf9 cells
[9] = molecular target: T3, High affinity 3',5'-cyclic-AMP phosphodiesterase 7A; experiment: Inhibition of human Phosphodiesterase 7A1 expressed in baculovirus infected Sf9 cells
[10] = molecular target: T4, cGMP-specific 3',5'-cyclic phosphodiesterase; experiment: Inhibition of human Phosphodiesterase 5

T1 sequence (Q14432 whole entry): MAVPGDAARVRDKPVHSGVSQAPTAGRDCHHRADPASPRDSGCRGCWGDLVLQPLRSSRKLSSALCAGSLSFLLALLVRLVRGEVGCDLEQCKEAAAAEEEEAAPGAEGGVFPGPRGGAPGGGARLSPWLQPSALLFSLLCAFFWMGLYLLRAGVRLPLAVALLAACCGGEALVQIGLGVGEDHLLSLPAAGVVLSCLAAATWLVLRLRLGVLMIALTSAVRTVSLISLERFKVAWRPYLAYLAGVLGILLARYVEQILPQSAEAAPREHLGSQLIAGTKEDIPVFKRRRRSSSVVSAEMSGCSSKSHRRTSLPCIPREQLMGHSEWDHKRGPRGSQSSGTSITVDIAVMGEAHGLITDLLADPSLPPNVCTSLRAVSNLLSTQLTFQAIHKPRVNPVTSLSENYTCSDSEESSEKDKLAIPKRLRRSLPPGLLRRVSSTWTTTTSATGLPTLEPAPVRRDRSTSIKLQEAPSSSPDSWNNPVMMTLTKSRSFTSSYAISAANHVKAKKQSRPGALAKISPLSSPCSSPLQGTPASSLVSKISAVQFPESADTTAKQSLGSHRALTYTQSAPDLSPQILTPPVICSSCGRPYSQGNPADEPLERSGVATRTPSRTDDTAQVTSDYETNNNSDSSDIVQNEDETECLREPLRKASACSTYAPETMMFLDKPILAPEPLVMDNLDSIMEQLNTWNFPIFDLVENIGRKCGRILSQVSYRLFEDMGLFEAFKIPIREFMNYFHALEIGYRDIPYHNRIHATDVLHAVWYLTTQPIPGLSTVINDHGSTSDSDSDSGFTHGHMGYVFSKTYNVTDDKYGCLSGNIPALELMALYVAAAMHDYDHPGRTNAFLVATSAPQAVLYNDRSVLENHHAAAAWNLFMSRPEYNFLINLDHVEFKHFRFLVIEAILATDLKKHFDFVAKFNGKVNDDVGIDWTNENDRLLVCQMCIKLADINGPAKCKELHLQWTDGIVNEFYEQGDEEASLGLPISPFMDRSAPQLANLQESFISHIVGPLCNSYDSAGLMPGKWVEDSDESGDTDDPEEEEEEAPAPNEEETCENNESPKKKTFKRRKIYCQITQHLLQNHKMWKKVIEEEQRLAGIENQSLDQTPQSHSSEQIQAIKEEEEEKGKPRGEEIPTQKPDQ

| SMILES | IC50 [1] [nM] | IC50 (Phosphodiesterase 1 [2]) [nM] | IC50 [3] [nM] | IC50 [4] [nM] | IC50 [5] [nM] | IC50 [9] [nM] | further results |
| --- | --- | --- | --- | --- | --- | --- | --- |
| CN(C)CCCNC(=O)c1cccc(-c2cc(Cl)c3c(c2)C2(CCCCC2)NC(=O)N3)c1 | 78100 | 5160 | 10 | > 84900 | 1460 |  |  |
| O=C1Nc2c(Cl)cc(-c3ccccc3)cc2C2(CCCCC2)N1 |  |  |  |  |  | 10 | IC50 [6]: 1420 nM; IC50 (Phosphodiesterase 1 [7]): 3260 nM; IC50 [8]: > 101000 nM; IC50 [10]: 69800 nM |
| CN1CCN(C(=O)c2ccc(-c3cc(Cl)c4c(c3)C3(CCCCC3)NC(=O)N4)cc2)CC1 | 29300 | 7010 | 10 |  | 1700 |  | IC50 [10]: 29300 nM |
| O=C1Nc2ccc(Cl)cc2C2(CCCCC2)N1 |  |  |  |  |  | 4800 |  |
| Cc1cccc2c1NC(=O)NC21CCCCC1 |  |  |  |  |  | 790 |  |
| CCC1(CC)NC(=O)Nc2c(Br)cccc21 |  |  |  |  |  | 6540 |  |
| O=C1Nc2cc(Cl)c(Cl)cc2C2(CCCCC2)N1 |  |  |  |  |  | 3700 |  |
| O=C1Nc2c(I)cccc2C2(CCCCC2)N1 |  |  |  |  |  | 6850 |  |
| O=C1Nc2ccc(-c3ccccc3)cc2C2(CCCCC2)N1 |  |  |  |  |  | 980 |  |
| O=C1Nc2c(Cl)cc(Cl)cc2C2(CCCCC2)N1 |  |  |  |  |  | 120 |  |
| COc1ccc2c(c1)C1(CCCCC1)NC(=O)N2 |  |  |  |  |  | 3200 |  |
| O=C1Nc2c(Br)cccc2C2(CCC2)N1 |  |  |  |  |  | 1400 |  |
| O=C1Nc2c(Cl)cc(-c3cccnc3)cc2C2(CCCCC2)N1 | 14800 | 2860 | 50 | 19300 | 1550 |  |  |
| COc1cc(Cl)c2c(c1)C1(CCCCC1)NC(=O)N2 |  |  |  |  |  | 160 |  |
| O=C1Nc2ccccc2C2(CCCCC2)N1 |  |  |  |  |  | 6600 |  |
| O=C1Nc2cc(Cl)ccc2C2(CCCCC2)N1 |  |  |  |  |  | 2700 |  |
| O=C1Nc2c(Cl)cc(-c3ccncc3)cc2C2(CCCCC2)N1 | 11200 | 3010 | 30 | 9470 | 1010 |  |  |
| O=C1Nc2c(C(F)(F)F)cccc2C2(CCCCC2)N1 |  |  |  |  |  | 2960 |  |

| SMILES | IC50 [1] [nM] | IC50 (Phosphodiesterase 1 [2]) [nM] | IC50 [3] [nM] | IC50 [4] [nM] | IC50 [5] [nM] | IC50 [9] [nM] | further results |
| --- | --- | --- | --- | --- | --- | --- | --- |
| NC(=O)c1ccc(-c2cc(Cl)c3c(c2)C2(CCCCC2)NC(=O)N3)cc1 | 280 | 1280 | 20 |  |  |  | IC50 [6]: 690 nM; IC50 [10]: 11600 nM |
| O=C1Nc2c(Cl)cc(-c3ccc(C(=O)O)cc3)cc2C2(CCCCC2)N1 | 21300 | 890 | 10 | 8500 | 470 |  |  |
| O=C1Nc2c(Br)cccc2C2(CCCCC2)N1 |  |  |  |  |  | 60 |  |
| CN1CCN(C(=O)c2cccc(-c3cc(Cl)c4c(c3)C3(CCCCC3)NC(=O)N4)c2)CC1 | 31600 | 6390 |  | 52400 | 1310 | 40 |  |
| CC1CCC2(CC1)NC(=O)Nc1c(Br)cccc12 (configuration not stated) |  |  |  |  |  | 210 |  |
| CN1CCN(C(=O)c2ccccc2-c2cc(Cl)c3c(c2)C2(CCCCC2)NC(=O)N3)CC1 | > 92000 | 20100 | 1520 | > 101000 | 15700 |  |  |
| Cc1cc(Cl)c2c(c1)C1(CCCCC1)NC(=O)N2 |  |  |  |  |  | 160 |  |
| CCCC1(CCC)NC(=O)Nc2c(Br)cccc21 |  |  |  |  |  | 2660 |  |
| O=C1Nc2cccc(Cl)c2C2(CCCCC2)N1 |  |  |  |  |  | 840 |  |
| O=C1Nc2c(Cl)cc(-c3ccccn3)cc2C2(CCCCC2)N1 | 45100 | 8300 | 30 | 68400 | 1800 |  |  |
| O=C1Nc2ccc(Cl)c(Cl)c2C2(CCCCC2)N1 |  |  |  |  |  | 600 |  |
| O=C1Nc2c(F)cccc2C2(CCCCC2)N1 |  |  |  |  |  | 390 |  |
| CN(C)CCNC(=O)c1cccc(-c2cc(Cl)c3c(c2)C2(CCCCC2)NC(=O)N3)c1 | > 79900 | 11600 | 20 | > 101000 | 1590 |  |  |
| COc1ccc2c(c1)NC(=O)NC21CCCCC1 |  |  |  |  |  | 9500 |  |
| CN(C)CCNC(=O)c1ccc(-c2cc(Cl)c3c(c2)C2(CCCCC2)NC(=O)N3)cc1 | 42200 | 6290 | 20 | > 67300 | 1630 |  |  |
| O=C1Nc2c(Br)cccc2C2(CCCCCC2)N1 |  |  |  |  |  | 60 |  |
| O=C1Nc2c(Cl)cc(-c3cccc(C(=O)O)c3)cc2C2(CCCCC2)N1 | 16700 | 710 | 20 | 12600 | 740 |  |  |
| CN(C)CCCNC(=O)c1ccc(-c2cc(Cl)c3c(c2)C2(CCCCC2)NC(=O)N3)cc1 | 44500 | 6470 | 20 | > 50700 | 1500 |  |  |
